In brackets after ≈: the same amount, converted by molar mass. Where two headings read alike, the source gives them in different places. Where a SMILES comes first, the peptide text is derived from it. [ ]: non-standard residue; d: D form. The star is where a group is joined. Levofloxacinoyl = C[C@H]1COc2c(N3CCN(C)CC3)c(F)cc3c(=O)c(C(=O)*)cn1c23; βAla = NCCC(=O)O
Assays:
E. coli (ATCC 25922) = experiment: Antibacterial broth microdilution MIC assay; type: cell-based, Escherichia coli; conditions: >99% inhibition of growth, MH broth, 20-22 h, 37 °C
Experimental: (§1) The antibacterial activity of peptide analogs was tested against different bacterial strains, i.e., Salmonella enterica subsp. enterica serotype Typhimurium or Salmonella typhi (ATCC 14028), Staphylococcus aureus (NCTC 13277), Bacillus subtilis (ATCC 23857), Escherichia coli (ATCC 25922), and Pseudomonas aeruginosa (ATCC 10145). These strains were obtained from the microbial bank of Dr. Panjwani Center for Molecular Medicine and Drug research (PCMD), International Center for Chemical and Biological Sciences (ICCBS), University of Karachi. Colonies of these bacterial strains were grown in respective agar media, then inoculated in Mueller Hinton (MH) broth (Oxoid, UK) and incubated at 37 °C overnight. The peptide solutions were first diluted 1 in 100 (from the stock solution at 20 mM) and then further two-fold dilution in MH broth in a sterile 96-well plate was performed, resulting in 100 µL of broth containing increasing concentrations of analogs. Bacteria in their exponential growth phase were diluted in MH broth, and 100 µL of this suspension was added in each well. […] Then, these plates were incubated at 37 °C for 20–22 h. MIC (Minimum Inhibitory Concentration) values were determined as the concentrations of peptides causing >99% inhibition of bacterial growth.

C. albicans (ATCC 36082) = experiment: microbe, parasite or virus in culture
Experimental: Candida albicans (ATCC 36082) was cultured on Sabourad Dextrose Agar (SDA). A single colony was inoculated in Sabouraud Dextrose Broth (SDB) medium and grown overnight at 37 °C while shaking. The next day, the susceptibility of C. albicans was tested using a broth microdilution assay. Peptide analogs were diluted in SDB media by two-fold dilution, resulting in 100 µL of medium containing increasing concentrations of analogs. The overnight culture (turbidity at OD600 = 1) was 1000× diluted in SDB. Then 100 µL of this suspension was added to each well, resulting in a final 200 µL suspension containing 2–4 × 10^5 CFU/mL. The plate was incubated at 37 °C for 24 h. The next day, MIC (Minimum Inhibitory Concentration) values were determined as the concentrations of peptides causing > 99% inhibition of yeast growth.

[1] = test system: human cervical cancer (HeLa) cells; experiment: cells; type: cell-based; conditions: 24 h
Experimental: (§2) Human breast cancer (MCF-7) and human cervical cancer (HeLa) cells were obtained from the cell culture bank of PCMD in ICCBS, University of Karachi. These cells were maintained in Dulbecco’s Modified Eagle Medium (DMEM), supplemented with 10% fetal bovine serum, and incubated at 37 °C and 5% CO2. The antiproliferative activity of the samples was determined by a MTT assay. Briefly, the cells were washed with PBS and trypsinized. After determination of the cell number using Malassez cell counting, 100 µL of the cell suspension were seeded in a 96-well plate at the density of 6000 cells/well and incubated at 37 °C and 5% CO2. After 24 h, the cells were treated with increasing concentrations of analogs. The next day, media was removed and 200 µL of MTT dye (0.5 mg/mL) was added in each well and incubated for 3 h at 37 °C in 5% CO2 incubator. Then, the media was removed and 100 µL of DMSO was added to solubilize formazan crystals. After one minute of shaking, the absorbance was recorded at 540 nm in microplate reader (Multiskan GO, ThermoScientific, Waltham, MA, USA). Finally, the percent inhibition of proliferation was calculated using the following formula: % inhibition of proliferation=O.D of treated well−O.D of media control/O.D of untreated control−O.D of media control×100

[2] = test system: Human breast cancer (MCF-7) cells; experiment: cells; type: cell-based
Experimental: as §2

S. aureus (NCTC 13277) = conditions: >99% inhibition of growth, MH broth, 20-22 h, 37 °C
[3] = test system: human red blood cells (RBC); experiment: Hemolytic assay; type: cell-based
Experimental: For the hemolytic assay, fresh human blood (2 mL) was obtained from a healthy donor in EDTA tube while following the protocol of approval from the Independent Ethics Committee of ICCBS (approval number ICCBS/IEC-047-HB-2019/Protocol/1.0). The blood was centrifuged and upper supernatant plasma was removed. The cell pellets were washed with sterile PBS three times. The washed blood cells were then diluted 25 times to make 4% concentration of the initial blood cells. Red blood cells (500 µL) were treated with increasing concentrations of analogs, with triton X-100 at 0.1% being used as positive control giving 100% hemolysis. After 1 h of incubation at 37 °C, tubes were centrifuged at 800 rpm for 5 min to pellet down red blood cells. After centrifugation, 200 µL of supernatant were transferred into a 96 well plate and the absorbance was recorded at 576 nm using a microplate reader (MultiSkan Go, ThermoScientific). Then, the following formula was applied to calculate percent hemolysis: % Hemolysis=O.D of test sample−O.D of PBS control/O.D of Tritox×positive control−O.D of PBS control×100

[4] = test system: P. aeruginosa (ATCC 10145); experiment: Antibacterial broth microdilution MIC assay; type: cell-based, Pseudomonas aeruginosa; conditions: >99% inhibition of growth, MH broth, 20-22 h, 37 °C
Experimental: as §1

B. subtilis (ATCC 23857) = experiment: Antibacterial broth microdilution MIC assay; type: cell-based, Bacillus subtilis; conditions: >99% inhibition of growth, MH broth, 20-22 h, 37 °C
Experimental: as §1

[5] = Circular dichroism secondary structure analysis (Bestsel) in 20 mM SDS; type: physicochemical; conditions: CD, 15 µM peptide in 20 mM SDS, 22 °C
Experimental: The far-ultraviolet circular dichroism (CD) spectra were recorded using a JASCO J-810 spectropolarimeter (Jasco, Tokyo, Japan), with measurements taken in a quartz cuvette with a 10 mm path length. The temperature was kept at 22 °C, and the instrument was calibrated with D-(+)-10-camphorsulfonic acid. Peptides were dissolved in 20 mM SDS to a final concentration of 15 µM. The CD spectra were collected over a wavelength range of 190 to 260 nm with a bandwidth of 2 nm. Each spectrum was recorded with ten consecutive scans at a rate of 50 nm/min, and the baseline was obtained under identical conditions. Secondary structures, i.e., the percentage of alpha-helix and other secondary structures, were quantified from CD data using Bestsel software (https://bestsel.elte.hu/index.php, accessed on 22 October 2024).

[6] = test system: cancer cells (MCF-7, HeLa); parameters: species or system human
Experimental: The selectivity of action of the analogs against micro-organisms or cancer cells was further evaluated through calculation of their selectivity indexes (SIs). SIs were determined using either the MIC on micro-organisms or IC50 on cancer cells compared to HC50 values, and they are reported in Table 6.

[7] = >99% inhibition of yeast growth, SDB, 24 h, 37 °C
[8] = MTT, 24 h exposure, read-out: IC50 on Breast Cancer (MCF-7)
[9] = >99% inhibition of growth, MH broth, 20-22 h, 37 °C

Structure (SMILES)	MIC (E. coli (ATCC 25922))	MIC C. albicans (ATCC 36082) (C. albicans (ATCC 36082); [7])	IC50 [1]	IC50 ([2]; 24 h)	MIC S. aureus (NCTC 13277) (S. aureus (NCTC 13277))	HC50 on Human Red Blood Cells (RBCs) ([3]; red cells of human, 1 h)	MIC S. typhi (ATCC 14028) (S. typhi (ATCC 14028); ATCC 14028)	MIC [4]	MIC (B. subtilis (ATCC 23857))	IC50 [2, 8]	MIC S. typhi (ATCC 14028) (S. typhi (ATCC 14028); [9])	Antiparallel (%) [5]	Helix (%) [5]	Others (%) [5]	Parallel (%) [5]	Turn (%) [5]	MIC C. albicans (ATCC 36082) (C. albicans (ATCC 36082); ATCC 36082, 24 h)	HC50 on Human Red Blood Cells (RBCs) [3]	IC50 [6]
CC[C@H](C)[C@H](NC(=O)[C@@H](NC(=O)CNC(=O)[C@H](CCSC)NC(=O)[C@H](CC(C)C)NC(=O)CNC(=O)[C@H](CCCCN)NC(=O)[C@H](CC(C)C)NC(=O)[C@H](Cc1ccccc1)NC(=O)CCNC(=O)c1cn2c3c(c(N4CCN(C)CC4)c(F)cc3c1=O)OC[C@@H]2C)C(C)C)C(=O)N[C@H](C)C(=O)N[C@@H](CO)C(=O)N[C@@H](CC(C)C)C(=O)N[C@@H](Cc1ccccc1)C(=O)N[C@@H](CCCCN)C(N)=O [RLFP-3 (6), LF-β-Ala-Phe^1-Leu^2-Lys^3-Gly^4-Leu^5-Met^6-Gly^7-Val^8-Ile^9-D-Ala^10-Ser^11-Leu^12-Phe^13-Lys^14-NH2] ({Levofloxacinoyl-βAla}-FLKGLMGVI[dA]SLFK-NH2)	25 µM (≈ 48.4 µg/mL)	3.12 µM (≈ 6.04 µg/mL)	12.1 µM	13.3 µM	12.5 µM (≈ 24.2 µg/mL)	6.6 µM	3.12 µM (≈ 6.04 µg/mL)	12.5 µM (≈ 24.2 µg/mL)	1.56 µM (≈ 3.02 µg/mL)										
CC[C@H](C)[C@H](NC(=O)[C@@H](NC(=O)CNC(=O)[C@H](CCSC)NC(=O)[C@H](CC(C)C)NC(=O)CNC(=O)[C@H](CCCCN)NC(=O)[C@H](CC(C)C)NC(=O)[C@@H](N)Cc1ccccc1)C(C)C)C(=O)N[C@H](C)C(=O)N[C@@H](CO)C(=O)N[C@@H](CC(C)C)C(=O)N[C@@H](Cc1ccccc1)C(N)=O [RNST-2 (2), H-Phe^1-Leu^2-Lys^3-Gly^4-Leu^5-Met^6-Gly^7-Val^8-Ile^9-D-Ala^10-Ser^11-Leu^12-Phe^13-NH2] (H-FLKGLMGVI[dA]SLF-NH2)	50 µM (≈ 69.7 µg/mL)	15.6 µM (≈ 21.8 µg/mL)	60 µM		3.12 µM (≈ 4.35 µg/mL)	13.8 µM		200 µM (≈ 279 µg/mL)	1.56 µM (≈ 2.18 µg/mL)	53 µM	50 µM (≈ 69.7 µg/mL)	17.9%	62%	0.00%	20.1%	0.00%			
CC[C@H](C)[C@H](NC(=O)[C@@H](NC(=O)CNC(=O)[C@H](CCSC)NC(=O)[C@H](CC(C)C)NC(=O)[C@H](CCCCN)NC(=O)[C@H](CCCCN)NC(=O)[C@H](CC(C)C)NC(=O)[C@@H](N)Cc1ccccc1)C(C)C)C(=O)N[C@H](C)C(=O)N[C@@H](CO)C(=O)N[C@@H](CC(C)C)C(=O)N[C@@H](Cc1ccccc1)C(N)=O [RSP-4 (7), H-Phe^1-Leu^2-Lys^3-Lys^4-Leu^5-Met^6-Gly^7-Val^8-Ile^9-D-Ala^10-Ser^11-Leu^12-Phe^13-NH2] (H-FLKKLMGVI[dA]SLF-NH2)	50 µM (≈ 73.3 µg/mL)		56.9 µM		50 µM (≈ 73.3 µg/mL)			200 µM (≈ 293 µg/mL)	12.5 µM (≈ 18.3 µg/mL)	39.9 µM	100 µM (≈ 147 µg/mL)	22.1%	56.8%	13.6%	0.00%	7.6%	100 µM (≈ 147 µg/mL)	> 100 µM	
CC[C@H](C)[C@H](NC(=O)[C@@H](NC(=O)CNC(=O)[C@H](CCSC)NC(=O)[C@H](CC(C)C)NC(=O)CNC(=O)[C@H](CCCCNC(=O)c1cn2c3c(c(N4CCN(C)CC4)c(F)cc3c1=O)OC[C@@H]2C)NC(=O)[C@H](CC(C)C)NC(=O)[C@@H](N)Cc1ccccc1)C(C)C)C(=O)N[C@H](C)C(=O)N[C@@H](CO)C(=O)N[C@@H](CC(C)C)C(=O)N[C@@H](Cc1ccccc1)C(=O)N[C@@H](CCCCN)C(N)=O [RLFP-2 (5), H-Phe^1-Leu^2-Lys^3(LF)-Gly^4-Leu^5-Met^6-Gly^7-Val^8-Ile^9-D-Ala^10-Ser^11-Leu^12-Phe^13-Lys^14-NH2] (H-FLK(Levofloxacinoyl)GLMGVI[dA]SLFK-NH2)	>200 µM		> 100 µM	> 100 µM	100 µM (≈ 187 µg/mL)	25.0 µM	200 µM (≈ 373 µg/mL)	>200 µM	50 µM (≈ 93.3 µg/mL)								>250 µM		> 100 µM
CC[C@H](C)[C@H](NC(=O)[C@@H](NC(=O)CNC(=O)[C@H](CCSC)NC(=O)[C@H](CC(C)C)NC(=O)[C@H](CCCCN)NC(=O)[C@H](CCCCN)NC(=O)[C@H](CC(C)C)NC(=O)[C@H](Cc1ccccc1)NC(=O)CCNC(=O)c1cn2c3c(c(N4CCN(C)CC4)c(F)cc3c1=O)OC[C@@H]2C)C(C)C)C(=O)N[C@H](C)C(=O)N[C@@H](CO)C(=O)N[C@@H](CC(C)C)C(=O)N[C@@H](Cc1ccccc1)C(N)=O [RLFP-4 (8), LF-β-Ala-Phe^1-Leu^2-Lys^3-Lys^4-Leu^5-Met^6-Gly^7-Val^8-Ile^9-D-Ala^10-Ser^11-Leu^12-Phe^13-NH2] ({Levofloxacinoyl-βAla}-FLKKLMGVI[dA]SLF-NH2)	25 µM (≈ 47 µg/mL)		15.5 µM	23.8 µM	6.25 µM (≈ 11.8 µg/mL)	4.5 µM	50 µM (≈ 94 µg/mL)	12.5 µM (≈ 23.5 µg/mL)	1.56 µM (≈ 2.93 µg/mL)								>200 µM		

Source: paper PMC11672801, “Synthesis of Temporin-SHa Retro Analogs with Lysine Addition/Substitution and Antibiotic Conjugation to Enhance Antibacterial, Antifungal, and Anticancer Activities” (Antibiotics, 2024)
